19 molecules from patent US8008299B2, “Urotensin II receptor antagonists” (Janssen Pharmaceutica, N.V., priority 2007, dated 2011) can be followed below.

Test [1] deals with T1, rat GPR14 (U-II receptor) (Rattus norvegicus, UniProt P49684).
T1 construct: expressed in transfected cells
T1 sequence (P49684 1-386): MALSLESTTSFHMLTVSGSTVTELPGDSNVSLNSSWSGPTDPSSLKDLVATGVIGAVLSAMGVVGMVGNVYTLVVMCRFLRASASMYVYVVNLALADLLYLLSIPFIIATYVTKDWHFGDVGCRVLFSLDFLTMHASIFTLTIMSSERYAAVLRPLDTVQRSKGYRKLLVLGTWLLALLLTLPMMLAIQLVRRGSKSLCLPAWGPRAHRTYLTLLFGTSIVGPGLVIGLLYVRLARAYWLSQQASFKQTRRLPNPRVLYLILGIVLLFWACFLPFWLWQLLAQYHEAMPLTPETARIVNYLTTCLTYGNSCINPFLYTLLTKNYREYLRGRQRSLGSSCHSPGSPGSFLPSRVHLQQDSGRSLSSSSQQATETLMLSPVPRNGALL
Description: Rat UII Calcium Mobilization FLIPR Assay. The conditions noted are these: CHO cells transfected with rat GPR14; antagonist activity after 5 min incubation vs agonist (Ac)-CFWK(2-NaI)C-NH2 at 1 nM. Type of test: cell-based. The method, boiled down:
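Fluorescent calcium signals were recorded at room temperature (23° C) by FLIPR. Stable rat U-II receptor CHO lines had been dye-loaded for 1 h at 37° C in pH 7.4 HBSS containing 20 mM HEPES, 0.1% BSA and 2.5 mM probenecid.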
A general note: A change in cytosolic calcium serves as a functional read-out for many receptors and channels.

Test [2] concerns the target T2, Human UII (U-II receptor) in 6D9 human rhabdomyosarcoma cells (Homo sapiens, UniProt Q9UKP6).
T2 construct: 6D9: isolated by dilution subcloning of RMS13 cells, ATCC® Number: CRL-2061; host or cells: 6D9 human rhabdomyosarcoma cells (subclone of RMS13)
T2 sequence (Q9UKP6 1-389): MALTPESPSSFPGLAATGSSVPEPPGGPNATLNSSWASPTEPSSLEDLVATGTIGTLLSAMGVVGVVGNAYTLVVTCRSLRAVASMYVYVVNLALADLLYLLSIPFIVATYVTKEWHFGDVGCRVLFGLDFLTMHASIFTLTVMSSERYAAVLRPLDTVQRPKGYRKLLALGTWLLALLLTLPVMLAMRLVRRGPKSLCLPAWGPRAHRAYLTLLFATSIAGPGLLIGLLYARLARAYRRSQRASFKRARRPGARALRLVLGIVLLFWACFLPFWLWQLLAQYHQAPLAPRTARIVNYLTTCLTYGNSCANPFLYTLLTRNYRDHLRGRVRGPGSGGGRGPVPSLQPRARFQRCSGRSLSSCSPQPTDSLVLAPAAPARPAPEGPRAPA
Description: Human UII Calcium Mobilization Assay. Type of test: cell-based.

The target in test [3] is T3, UT receptors in HSMM (Human Skeletal Muscle Myoblasts) (Homo sapiens, UniProt Q9UKP6).
T3 sequence (Q9UKP6 1-389): T2 sequence (Q9UKP6 1-389)
Description: Human Radioligand Binding Assay ((^125I)-U-II binding to intact HSMM).

[4] abbreviates: 6D9 human rhabdomyosarcoma cells, FLIPR TETRA, average, read-out: Human UII Ca+ Mobilization Average IC50.
Where [5] appears, read: read-out: Human UII Average Binding Ki, intact HSMM, 0.150 nM (^125I)-U-II, 3 h, 25° C.

SMILES strings stand for the structures. Where two headings read alike, the source gives them in different places.

As usually defined, the IC50 is the concentration that gives 50% inhibition. One may read the Ki as a dissociation constant, usually derived from enzyme kinetics or from competition with a known ligand. Regarding `CCN1CCN(c2cccc3c2CN([C@H](CCCN(C)S(=O)(=O)N(C)C)c2ccc(OC)c(OC)c2)C3=O)CC1` [Cpd 1, dimethylaminosulfonic acid {(4R)-4-(3,4-dimethoxy-phenyl)-4-[4-(4-ethyl-piperazin-1-yl)-1-oxo-1,3-dihydro-isoindol-2-yl]-butyl}-methyl-amide], the IC50 in test [1] came out at 7 nM; in test [2] (setting [4]), 204 nM. The molecule further returned an inhibition constant Ki in test [3] of 55 nM.
The corresponding values for `CCN1CCN(c2cccc3c2CN([C@H](CCCN(C)Cc2ccc(F)cc2)c2ccc(OC)c(OC)c2)C3=O)CC1` [Cpd 99, 2-{(1R)-1-(3,4-dimethoxy-phenyl)-4-[(4-fluoro-benzyl)-methyl-amino]-butyl}-4-(4-ethyl-piperazin-1-yl)-2,3-dihydro-isoindol-1-one] are 4 nM, 238 nM and 47 nM.
For `CCN1CCN(c2cccc3c2CN([C@H](CCCNc2ccccn2)c2ccc(OC)c(OC)c2)C3=O)CC1` [Cpd 92, 2-[(1R)-1-(3,4-dimethoxy-phenyl)-4-(pyridin-2-ylamino)-butyl]-4-(4-ethyl-piperazin-1-yl)-2,3-dihydro-isoindol-1-one], the 50% inhibitory concentration (IC50) in test [1] amounted to 74 nM; in test [2] (setting [4]), 911 nM. Besides, the Ki in test [3] was determined as 60 nM.
For the molecule `CCN1CCC(c2cccc3c2CN([C@H](CCCN(C)S(=O)(=O)c2cccs2)c2ccc(OC)c(OC)c2)C3=O)CC1` [Cpd 2, thiophene-2-sulfonic acid {(4R)-4-(3,4-dimethoxy-phenyl)-4-[4-(1-ethyl-piperidin-4-yl)-1-oxo-1,3-dihydro-isoindol-2-yl]-butyl}-methyl-amide], the figures for the IC50 in test [1] and in test [2] (setting [4]) were 32 nM and 695 nM, respectively. In test [3], this molecule returned a Ki of 50 nM.
For the molecule `CCN1CCN(c2cccc3c2CN([C@H](CCCNC(=O)c2cccs2)c2ccc(OC)c(OC)c2)C3=O)CC1` [Cpd 81, thiophene-2-carboxylic acid {(4R)-4-(3,4-dimethoxy-phenyl)-4-[4-(4-ethyl-piperazin-1-yl)-1-oxo-1,3-dihydro-isoindol-2-yl]-butyl}-amide], the results for the IC50 in test [1] and in test [2] were 7 nM and 137 nM, respectively. Further, in test [3] (setting [5]), the Ki worked out at 18 nM.
As for `COc1ccc([C@@H](CCCN(C)c2ccccc2)N2Cc3c(cccc3N3CCNCC3)C2=O)cc1OC` [Cpd 33, 2-[(1R)-1-(3,4-dimethoxy-phenyl)-4-(methyl-phenyl-amino)-butyl]-4-piperazin-1-yl-2,3-dihydro-isoindol-1-one], the values for the IC50 in test [1] and in test [2] (setting [4]) were 307 nM and 4680 nM, respectively. Further, in test [3], the affinity corresponds to a Ki of 520 nM.
With `CCN1CCN(c2cccc3c2CN([C@H](CCCNS(=O)(=O)c2cnc(C)n2C)c2ccc(OC)c(OC)c2)C3=O)CC1` [Cpd 49, 2,3-dimethyl-3H-imidazole-4-sulfonic acid {(4R)-4-(3,4-dimethoxy-phenyl)-4-[4-(4-ethyl-piperazin-1-yl)-1-oxo-1,3-dihydro-isoindol-2-yl]-butyl}-amide], the IC50 was 2 nM in test [1] and 64 nM in test [2] (setting [4]). The Ki in test [3] was 13 nM.
For the molecule `CCN1CCN(c2cccc3c2CN([C@H](CCCNc2cccc[n+]2[O-])c2ccc(OC)c(OC)c2)C3=O)CC1` [Cpd 93, 2-[(1R)-1-(3,4-dimethoxy-phenyl)-4-(1-oxy-pyridin-2-ylamino)-butyl]-4-(4-ethyl-piperazin-1-yl)-2,3-dihydro-isoindol-1-one], the half-inhibitory concentration (IC50) in test [1] worked out at 82 nM; in test [2] (setting [4]), 555 nM. Further, in test [3], the Ki was 125 nM.
With `COc1ccc([C@@H](CCCN(C)S(=O)(=O)c2cccs2)N2Cc3c(cccc3N3CCN(C4CCC4)CC3)C2=O)cc1OC` [Cpd 9, thiophene-2-sulfonic acid [(4R)-4-[4-(4-cyclobutyl-piperazin-1-yl)-1-oxo-1,3-dihydro-isoindol-2-yl]-4-(3,4-dimethoxy-phenyl)-butyl]-methyl-amide], the values for the IC50 in test [1] and in test [2] (setting [4]) were 4 nM and 511 nM, respectively. For the same molecule, the Ki in test [3] (setting [5]) amounted to 44 nM.
Take `CCN1CCC(C(c2ccc(OC)c(OC)c2)N2Cc3c(cccc3N3CCN(CC)CC3)C2=O)CC1` (stereo not drawn) [Cpd 42, 2-[(3,4-dimethoxy-phenyl)-(1-ethyl-piperidin-4-yl)-methyl]-4-(4-ethyl-piperazin-1-yl)-2,3-dihydro-isoindol-1-one]: the IC50 in test [1] was 3600 nM; in test [2] (setting [4]) it was over 10000 nM. Further, the Ki in test [3] is over 300 nM.
`CCN1CCN(c2cccc3c2CN([C@H](CCCNC(=O)c2ccncc2)c2ccc(OC)c(OC)c2)C3=O)CC1` [Cpd 54, N-{(4R)-4-(3,4-dimethoxy-phenyl)-4-[4-(4-ethyl-piperazin-1-yl)-1-oxo-1,3-dihydro-isoindol-2-yl]-butyl}-isonicotinamide]: the 50% inhibitory concentration (IC50) in test [1] came out at 81 nM; in test [2] (setting [4]), 628 nM. In test [3], the Ki was found to be 77 nM.
Turning to `CCN1CCN(c2cccc3c2CN([C@H](CCCNC(=O)C2CCC2)c2ccc(OC)c(OC)c2)C3=O)CC1` [Cpd 80, cyclobutanecarboxylic acid {(4R)-4-(3,4-dimethoxy-phenyl)-4-[4-(4-ethyl-piperazin-1-yl)-1-oxo-1,3-dihydro-isoindol-2-yl]-butyl}-amide], the IC50 in test [1] amounted to 21 nM; in test [2] (setting [4]), 311 nM. In test [3], this molecule registered an inhibition constant Ki of 18 nM.
As to `COc1ccc([C@@H](CCCN(C)S(=O)(=O)c2cccs2)N2Cc3c(cccc3N3CCNCC3)C2=O)cc1OC` [Cpd 30, thiophene-2-sulfonic acid [(4R)-4-(3,4-dimethoxy-phenyl)-4-(1-oxo-4-piperazin-1-yl-1,3-dihydro-isoindol-2-yl)-butyl]-methyl-amide], the IC50 in test [1] was found to be 39 nM; in test [2] (setting [4]), 409 nM. Moreover, the inhibition constant Ki in test [3] (setting [5]) stood at 49 nM.
Consider `CCN1CCN(c2cccc3c2CN([C@H](CCCOCc2ccccc2F)c2ccc(OC)c(OC)c2)C3=O)CC1` [Cpd 51, 2-[(1R)-1-(3,4-dimethoxy-phenyl)-4-(2-fluoro-benzyloxy)-butyl]-4-(4-ethyl-piperazin-1-yl)-2,3-dihydro-isoindol-1-one], for which the results for the IC50 in test [1] and in test [2] (setting [4]) were 2550 nM and over 10000 nM, respectively. For the same molecule, the Ki in test [3] is over 300 nM.
As to `CCN1CCN(c2cccc3c2CN([C@H](CCCn2cc(C)nc2C)c2ccc(OC)c(OC)c2)C3=O)CC1` [Cpd 102, 2-[(1R)-1-(3,4-dimethoxy-phenyl)-4-(2,4-dimethyl-imidazol-1-yl)-butyl]-4-(4-ethyl-piperazin-1-yl)-2,3-dihydro-isoindol-1-one], the results for the IC50 in test [1] and in test [2] (setting [4]) were 93 nM and 1280 nM, respectively. Also, the Ki in test [3] was over 300 nM.
As for `CCN1CCN(c2cccc3c2CN([C@H](CCCN(C)Cc2ccccc2)c2ccc(OC)c(OC)c2)C3=O)CC1` [Cpd 3, 2-[(1R)-4-(benzyl-methyl-amino)-1-(3,4-dimethoxy-phenyl)-butyl]-4-(4-ethyl-piperazin-1-yl)-2,3-dihydro-isoindol-1-one], the concentration for half-maximal inhibition (IC50) in test [1] turned out to be 4 nM; in test [2] (setting [4]), 71 nM. This molecule registered a Ki in test [3] of 34 nM.
The corresponding values for `CCN1CCN(c2cccc3c2CN([C@H](CCCN(Cc2ccc(F)cc2)C2CC2)c2ccc(OC)c(OC)c2)C3=O)CC1` [Cpd 90, 2-[(1R)-4-[cyclopropyl-(4-fluoro-benzyl)-amino]-1-(3,4-dimethoxy-phenyl)-butyl]-4-(4-ethyl-piperazin-1-yl)-2,3-dihydro-isoindol-1-one] are 6 nM, 168 nM and 34 nM.
Consider `CCN1CCN(c2cccc3c2CN([C@H](CCCNS(=O)(=O)c2cn(C)cn2)c2ccc(OC)c(OC)c2)C3=O)CC1` [Cpd 53, 1-methyl-1H-imidazole-4-sulfonic acid {(4R)-4-(3,4-dimethoxy-phenyl)-4-[4-(4-ethyl-piperazin-1-yl)-1-oxo-1,3-dihydro-isoindol-2-yl]-butyl}-amide], for which the IC50 stood at 53 nM in test [1] and 278 nM in test [2] (setting [4]). The same molecule registered an inhibitory constant (Ki) in test [3] of 56 nM.
With `CCN1CCN(c2cccc3c2CN([C@H](CCCn2cnc4ccccc42)c2ccc(OC)c(OC)c2)C3=O)CC1` [Cpd 29, 2-[(1R)-4-benzoimidazol-1-yl-1-(3,4-dimethoxy-phenyl)-butyl]-4-(4-ethyl-piperazin-1-yl)-2,3-dihydro-isoindol-1-one], the half-maximal inhibitory concentration (IC50) was 14 nM in test [1] and 380 nM in test [2] (setting [4]). This molecule also had a Ki in test [3] of 56 nM.
